Experimental data from patent publication US11413360B2, “Dual mode radiotracer and—therapeutics” (priority 2017, dated 2022).
Like-named read-outs stand apart in the source and are kept apart here.

Columns and labels:
[1] = system: LNCaP cells; test: Internalization of radiolabelled ligands into LNCaP cells; assay type: cell-based
Method: Subsequent to the removal of the culture medium, the cells were washed once with 500 μL DMEM-F12 (5% BSA) and left to equilibrate for at least 15 min at 37° C. in 200 μL DMEM-F12 (5% BSA). Each well was treated with either 25 μL of either DMEM-F12 (5% BSA) or a 100 μM PMPA solution for blockade. […] The experiment was terminated by placing the 24-well plate on ice for 3 min and consecutive removal of the medium. Each well was rinsed with 250 μL HBSS and the fractions from these first two steps combined, representing the amount of free radioligand. Removal of surface bound activity was accomplished by incubation of the cells with 250 μL of ice-cold PMPA (10 μM in PBS) solution for 5 min and rinsed again with another 250 μL of ice-cold PBS. The internalized activity was determined by incubation of the cells in 250 μL 1 M NaOH and the combination with the fraction of a subsequent wash step with 250 μL 1.0 M NaOH. Each experiment (control and blockade) was performed in triplicate. Free, surface bound and internalized activity was quantified in a γ-counter. […] Data were corrected for non-specific internalization and normalized to the specific-internalization observed for the radioiodinated reference compound.

[2] = target: T1, PSMA (Homo sapiens, UniProt Q04609); test: Determination of PSMA affinity (IC50), competition with ([125I]I-BA)KuE on LNCaP cells; assay type: binding; conditions: ([125I]I-BA)KuE 0.2 nM, 1 h, 4° C., mean ± SD, read-out: IC50
T1 construct: endogenous in cells; host or cells: LNCaP cells
Method: After removal of the culture medium, the cells were treated once with 500 μL of HBSS (Hank's balanced salt solution, Biochrom, Berlin, Germany, with addition of 1% bovine serum albumin (BSA)) and left 15 min on ice for equilibration in 200 μL HBSS (1% BSA). […] Quantification of bound and free radioligand was accomplished in a γ-counter.

[3] = system: recurrent prostate cancer; test: PET/MR with 68Ga-labelled PSMA-SIFA3 (7) in one subject; assay type: in vivo, human; conditions: 144 MBq, PET/MR 66 min after injection, one subject with biochemical recurrence
Method: As a proof on concept investigation of a ^68Ga-labelled SiFA substituted chelator-based PET tracers one subject with biochemical recurrence after radical prostatectomy (PSA 0.44 ng/ml, pT2c, pNO, Gleason 7b) underwent PET/MR 66 min after injection of 144 MBq ^68Ga-labelled PSMA-SIFA3 (7).

[4] = Octanol-water partition coefficient (log D) of radiolabelled ligands; assay type: physicochemical; conditions: n-octanol/PBS, n = 6
Method: Approximately 1 MBq of the labelled tracer was dissolved in 1 mL of a 1:1 mixture (by volumes) of phosphate buffered saline (PBS, pH 7.4) and n-octanol in an Eppendorf tube. After vigorous mixing of the suspension for 3 minutes at room temperature, the vial was centrifuged at 15000 g for 3 minutes (Biofuge 15, Heraus Sepatech, Osterode, Germany) and 100 μL aliquots of both layers were measured in a gamma counter. The experiment was repeated at least six times.

[5] = in vivo
[6] = system: prostate cancer tumor lesions; test: Human PET uptake in and detection of prostate cancer tumor lesions with 18F-labelled PSMA-SIFA3 (7); assay type: in vivo
From the text: Gluteal muscle served as background.

[7] = target: Human Serum Albumin (Homo sapiens, UniProt P02768); test: HSA binding on Chiralpak HSA column; assay type: in vitro ADME
Method: The mobile phase (A: NH4OAc, 50 mM in water, pH 7 and B: isopropanol) was freshly prepared for each experiment and only used for one day. The column was kept at room temperature and each run was stopped after detection of the signal to reduce the acquisition time. All substances were dissolved in a 0.5 mg/ml concentration in 50% 2-propanol and 50% 50 mM pH 6.9 ammonium acetate buffer. […] All nine reference substances (see Table 1) were injected consecutively to establish a non-linear regression with OriginPro 2016G; see FIG. 1.

[8] = 18F-labelled, of 72 lesions analysed
[9] = 35 lesions with no correlate or small size on morphological imaging, 18F-labelled, human PET
[10] = bone metastases (n=21), 18F-labelled, human PET
[11] = local tumor (n=24), 18F-labelled, human PET
[12] = lymph node metastases (n=23), 18F-labelled, human PET
[13] = tumor lesions, 18F-labelled, human PET, n = 72
[14] = visceral metastases (n=4), 18F-labelled, human PET

T1 sequence (Q04609 whole entry): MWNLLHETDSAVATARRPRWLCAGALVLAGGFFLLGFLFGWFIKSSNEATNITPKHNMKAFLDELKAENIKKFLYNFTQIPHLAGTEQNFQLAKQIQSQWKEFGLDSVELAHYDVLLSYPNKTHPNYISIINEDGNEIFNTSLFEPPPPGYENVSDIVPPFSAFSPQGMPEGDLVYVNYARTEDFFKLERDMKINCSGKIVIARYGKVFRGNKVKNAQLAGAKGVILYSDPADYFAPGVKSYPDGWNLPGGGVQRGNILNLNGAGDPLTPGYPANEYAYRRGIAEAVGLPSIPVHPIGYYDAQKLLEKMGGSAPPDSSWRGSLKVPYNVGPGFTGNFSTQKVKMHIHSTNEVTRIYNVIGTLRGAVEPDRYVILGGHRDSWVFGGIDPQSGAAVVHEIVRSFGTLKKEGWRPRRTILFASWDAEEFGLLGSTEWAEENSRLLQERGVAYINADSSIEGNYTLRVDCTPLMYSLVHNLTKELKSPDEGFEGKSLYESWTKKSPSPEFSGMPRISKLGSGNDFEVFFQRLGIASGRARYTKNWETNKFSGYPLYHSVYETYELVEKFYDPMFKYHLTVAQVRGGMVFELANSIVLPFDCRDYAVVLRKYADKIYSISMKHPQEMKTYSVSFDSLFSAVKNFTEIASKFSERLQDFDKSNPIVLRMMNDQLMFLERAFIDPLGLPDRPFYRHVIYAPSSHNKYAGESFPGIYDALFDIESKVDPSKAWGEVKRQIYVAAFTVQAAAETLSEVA
Human Serum Albumin, sequence (P02768 25-609): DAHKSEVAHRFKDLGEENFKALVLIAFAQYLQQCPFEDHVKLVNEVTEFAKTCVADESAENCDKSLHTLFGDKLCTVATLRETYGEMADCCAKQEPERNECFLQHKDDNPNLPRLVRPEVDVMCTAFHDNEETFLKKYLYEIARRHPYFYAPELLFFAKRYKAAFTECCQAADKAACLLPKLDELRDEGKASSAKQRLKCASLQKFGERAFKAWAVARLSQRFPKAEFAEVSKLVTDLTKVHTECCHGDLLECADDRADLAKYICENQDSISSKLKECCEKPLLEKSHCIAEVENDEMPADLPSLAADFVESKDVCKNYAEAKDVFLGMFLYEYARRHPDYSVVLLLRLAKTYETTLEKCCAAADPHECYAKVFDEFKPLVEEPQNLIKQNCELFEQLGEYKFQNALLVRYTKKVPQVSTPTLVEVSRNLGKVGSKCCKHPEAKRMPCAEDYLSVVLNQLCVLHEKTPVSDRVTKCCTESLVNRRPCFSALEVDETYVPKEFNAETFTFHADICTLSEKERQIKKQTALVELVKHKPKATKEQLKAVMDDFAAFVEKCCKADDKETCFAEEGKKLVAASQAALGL

Question: With CC(C)(C)[Si](F)(c1ccc(C(=O)NC[C@@H](NC(=O)CCC(C(=O)O)N2CCN(CC(=O)O)CCN(CC(=O)O)CCN(CC(=O)O)CC2)C(=O)N[C@H](CCCCNC(=O)CCC(=O)NCCC[C@@H](NC(=O)CC[C@H](NC(=O)N[C@@H](CCC(=O)O)C(=O)O)C(=O)O)C(=O)O)C(=O)O)cc1)C(C)(C)C (some centres unmarked) [ligand 7, PSMA-SIFA3] as the compound, how does the Internalization ([1]; 18F-L, 0.5 nM, 1 hour, 37° C., % of reference ligand ([125I]I-BA)KuE, mean ± SD) read?
Answer: The Internalization was 164.8 ± 4.5%.

Question: What about the Internalization ([1]; 177Lu-natF-L, 0.5 nM, 1 hour, 37° C., % of reference ligand ([125I]I-BA)KuE, mean ± SD) of the same compound?
Answer: Its Internalization is 185.8 ± 4.5%.

Question: What about the Internalization ([1]; 1 h, 0.0005 µM) of the same compound?
Answer: Its Internalization is 126.0 ± 13.1%.

Question: What about the IC50 ([2]; natF-L (uncomplexed)) of the same compound?
Answer: Its IC50 is 3.5 ± 0.2 nM.

Question: And the IC50 ([2]; natGa-natF-L)?
Answer: Its IC50 is 3 ± 0.7 nM.

Question: And the IC50 ([2]; natLu-natF-L)?
Answer: The IC50 was 3.9 ± 0.5 nM.

Question: And the “uptake in lesion (proof of concept)” value [3]?
Answer: Its value is “Uptake typical for recurrent prostate cancer is demonstrated in a 2 mm lymph node”.

Question: What about the logD ([4]; pH 7.4, 18F-L) of the same compound?
Answer: Its logD is -1.98 ± 0.04.

Question: What about the logD ([4]; pH 7.4, 68Ga-natF-L) of the same compound?
Answer: Its logD is -3.18 ± 0.05.

Question: What about the logD ([4]; pH 7.4, 177Lu-natF-L) of the same compound?
Answer: The logD was -4.2 ± 0.09.

Question: What about the “adverse events / clinically detectable pharmacological effects” value [5] of the same compound?
Answer: The value was “No adverse events or clinically detectable pharmacological effects were noted”.

Question: And the SUVmax max [6]?
Answer: Its SUVmax max is 25.

Question: And the SUVmean max [6]?
Answer: The SUVmean max was 28.3.

Question: What about the “ratio SUVmax to background max” value [6] of the same compound?
Answer: The value was 43.8.

Question: What about the “ratio SUVmean to background max” value [6] of the same compound?
Answer: Its value is 56.6.

Question: What about the “patients in whom lesions indicative for prostate cancer were detected” value ([6]; 18F-labelled, 53 subjects imaged (primary staging n=6, recurrent disease n=47)) of the same compound?
Answer: The value was 39 patients.

Question: And the “lesions with no correlate on morphological imaging” value [6, 8]?
Answer: Its value is 21 lesions.

Question: What about the “lesions with size of equal or less than 5 mm on morphological imaging” value [6, 8] of the same compound?
Answer: Its value is 14 lesions.

Question: And the “uptake in prostate cancer lesions (individual patient images)” value ([6]; 18F-labelled, single patients, FIG. 26 and FIG. 27)?
Answer: Its value is “high uptake”.

Question: What about the SUVmax mean [6, 9] of the same compound?
Answer: The SUVmax mean was 16.7.

Question: And the SUVmax min [6, 9]?
Answer: The SUVmax min was 9.2.

Question: And the SUVmean mean [6, 9]?
Answer: The SUVmean mean was 13.3.

Question: What about the SUVmean min [6, 9] of the same compound?
Answer: The SUVmean min was 6.4.

Question: And the “ratio SUVmax to background mean” value [6, 9]?
Answer: Its value is 18.3.

Question: What about the “ratio SUVmax to background min” value [6, 9] of the same compound?
Answer: Its value is 5.8.

Question: And the “ratio SUVmean to background mean” value [6, 9]?
Answer: Its value is 22.9.

Question: And the “ratio SUVmean to background min” value [6, 9]?
Answer: Its value is 7.1.

Question: What about the SUVmax max [6, 10] of the same compound?
Answer: Its SUVmax max is 95.4.

Question: What about the SUVmax mean [6, 10] of the same compound?
Answer: The SUVmax mean was 31.2.

Question: What about the SUVmax min [6, 10] of the same compound?
Answer: Its SUVmax min is 7.9.

Question: What about the SUVmean max [6, 10] of the same compound?
Answer: The SUVmean max was 71.7.

Question: And the SUVmean mean [6, 10]?
Answer: The SUVmean mean was 22.2.

Question: And the SUVmean min [6, 10]?
Answer: The SUVmean min was 5.3.

Question: What about the “ratio SUVmax to background max” value [6, 10] of the same compound?
Answer: Its value is 73.4.

Question: And the “ratio SUVmax to background mean” value [6, 10]?
Answer: Its value is 32.8.

Question: And the “ratio SUVmax to background min” value [6, 10]?
Answer: The value was 7.9.

Question: What about the “ratio SUVmean to background max” value [6, 10] of the same compound?
Answer: The value was 80.

Question: And the “ratio SUVmean to background mean” value [6, 10]?
Answer: Its value is 36.6.

Question: What about the “ratio SUVmean to background min” value [6, 10] of the same compound?
Answer: Its value is 8.8.

Question: And the SUVmax max [6, 11]?
Answer: The SUVmax max was 75.1.

Question: What about the SUVmax mean [6, 11] of the same compound?
Answer: The SUVmax mean was 26.9.

Question: What about the SUVmax min [6, 11] of the same compound?
Answer: The SUVmax min was 4.

Question: And the SUVmean max [6, 11]?
Answer: The SUVmean max was 19.3.

Question: What about the SUVmean mean [6, 11] of the same compound?
Answer: Its SUVmean mean is 19.3.

Question: What about the SUVmean min [6, 11] of the same compound?
Answer: The SUVmean min was 2.7.

Question: What about the “ratio SUVmax to background max” value [6, 11] of the same compound?
Answer: The value was 83.4.

Question: What about the “ratio SUVmax to background mean” value [6, 11] of the same compound?
Answer: The value was 29.6.

Question: What about the “ratio SUVmax to background min” value [6, 11] of the same compound?
Answer: The value was 5.

Question: And the “ratio SUVmean to background max” value [6, 11]?
Answer: The value was 83.2.

Question: And the “ratio SUVmean to background mean” value [6, 11]?
Answer: The value was 32.4.

Question: And the “ratio SUVmean to background min” value [6, 11]?
Answer: The value was 5.4.

Question: And the SUVmax max [6, 12]?
Answer: Its SUVmax max is 67.5.

Question: And the SUVmax mean [6, 12]?
Answer: The SUVmax mean was 22.2.

Question: And the SUVmax min [6, 12]?
Answer: Its SUVmax min is 8.1.

Question: What about the SUVmean max [6, 12] of the same compound?
Answer: The SUVmean max was 44.6.

Question: What about the SUVmean mean [6, 12] of the same compound?
Answer: The SUVmean mean was 16.6.

Question: And the SUVmean min [6, 12]?
Answer: The SUVmean min was 6.4.

Question: What about the “ratio SUVmax to background max” value [6, 12] of the same compound?
Answer: Its value is 63.6.

Question: What about the “ratio SUVmax to background mean” value [6, 12] of the same compound?
Answer: The value was 23.7.

Question: What about the “ratio SUVmax to background min” value [6, 12] of the same compound?
Answer: Its value is 5.8.

Question: What about the “ratio SUVmean to background max” value [6, 12] of the same compound?
Answer: The value was 70.7.

Question: What about the “ratio SUVmean to background mean” value [6, 12] of the same compound?
Answer: The value was 27.3.

Question: What about the “ratio SUVmean to background min” value [6, 12] of the same compound?
Answer: Its value is 7.1.

Question: What about the SUVmax max [6, 13] of the same compound?
Answer: Its SUVmax max is 95.4.

Question: What about the SUVmax mean [6, 13] of the same compound?
Answer: Its SUVmax mean is 26.6.

Question: What about the SUVmax min [6, 13] of the same compound?
Answer: Its SUVmax min is 4.0.

Question: What about the SUVmean max [6, 13] of the same compound?
Answer: Its SUVmean max is 71.7.

Question: What about the SUVmean mean [6, 13] of the same compound?
Answer: The SUVmean mean was 19.2.

Question: And the SUVmean min [6, 13]?
Answer: The SUVmean min was 2.7.

Question: And the “ratio SUVmax to background max” value [6, 13]?
Answer: Its value is 83.4.

Question: What about the “ratio SUVmax to background mean” value [6, 13] of the same compound?
Answer: Its value is 28.6.

Question: And the “ratio SUVmax to background min” value [6, 13]?
Answer: Its value is 5.0.

Question: And the “ratio SUVmean to background max” value [6, 13]?
Answer: Its value is 83.2.

Question: What about the “ratio SUVmean to background mean” value [6, 13] of the same compound?
Answer: Its value is 31.9.

Question: And the “ratio SUVmean to background min” value [6, 13]?
Answer: The value was 5.4.

Question: And the SUVmax max [6, 14]?
Answer: The SUVmax max was 32.5.

Question: And the SUVmax mean [6, 14]?
Answer: Its SUVmax mean is 26.1.

Question: And the SUVmax min [6, 14]?
Answer: The SUVmax min was 20.4.

Question: What about the SUVmean max [6, 14] of the same compound?
Answer: Its SUVmean max is 19.1.

Question: What about the SUVmean mean [6, 14] of the same compound?
Answer: The SUVmean mean was 17.4.

Question: What about the SUVmean min [6, 14] of the same compound?
Answer: The SUVmean min was 15.5.

Question: And the “ratio SUVmax to background max” value [6, 14]?
Answer: Its value is 40.6.

Question: What about the “ratio SUVmax to background mean” value [6, 14] of the same compound?
Answer: Its value is 28.9.

Question: What about the “ratio SUVmax to background min” value [6, 14] of the same compound?
Answer: Its value is 18.5.

Question: And the “ratio SUVmean to background max” value [6, 14]?
Answer: Its value is 38.2.

Question: And the “ratio SUVmean to background mean” value [6, 14]?
Answer: The value was 30.2.

Question: And the “ratio SUVmean to background min” value [6, 14]?
Answer: The value was 22.1.

Question: And the HSA binding ([7]; natGa-natF-L)?
Answer: Its HSA binding is 95.7%.

Question: What about the HSA binding ([7]; natLu-natF-L) of the same compound?
Answer: The HSA binding was 97.7%.
